# Measured values from patent publication US7655655B1, “Method for facilitating extinction training using D-cycloserine” (priority 2009, dated 2010).
# Read-outs that look alike come from different tables or passages of the source.
# Experiments:
# [1] = cited from earlier work
# [2] = system: subjects chronically ill with tuberculosis; conditions: chronic dosing schedules, typical tuberculosis doses 500-1000 mg/day; cited from earlier work
# [3] = system: subjects with acrophobia; conditions: DCS administered prior to virtual reality therapy sessions, versus placebo; cited from earlier work
# [4] = system: Sprague Dawley rats; experiment: Extinction of fear-potentiated startle in rats with post-extinction training pre-sleep administration; format: in vivo, rat; conditions: higher values signify greater extinction
# Method: Subjects. Twenty male, Sprague Dawley rats (300-350 grams) were used. Rats were placed in cages used to measure the acoustic startle reflex (Cassella, J. V., and Davis, M. “The design and calibration of a startle measurement system”, Physiology & Behavior (1986), 36, pp. 377-383) and, after a 5 minute acclimation period, presented with 50 startle stimuli (50-ms duration, 5-ms rise-decay time), 10 at each of five intensities (95, 100, 105, 110, and 115 dB) in a semi-random order at a 30-s interstimulus interval. The animals were subsequently divided into four groups of five rats, each having similar mean startle amplitudes across the 10 stimuli at the five intensities.
# Fear conditioning and testing. On two consecutive training days, animals were placed in the startle chambers and after a 5-min acclimation period, presented with 10 light shock pairings. The shock was presented during the last 500 ms of the 3,700-ms light at an average intertrial interval of 3 minutes (range, 2-4 min). No further shocks were presented thereafter. Twenty-four hours after the second training day, rats were placed in the startle chamber and presented with 30 95-dB startle stimuli (leaders), followed by the first of 10 startle stimuli presented 3.2 seconds after onset of the light that had previously been paired with a shock, and 10 more startle stimuli alone. The two trial types (light-startle and startle-alone) were presented in an irregular balanced order at a 30-s interstimulus interval. Based on the mean difference in startle amplitude between the mean startle amplitude across the last 10 leaders and the mean startle amplitude across the light-startle trials, a percent fear-potentiated startle was computed as: [(mean difference in startle amplitude between the light-startle and leaders)/mean leaders]×100. The rats were divided into four groups.
# Extinction training with or without sleep deprivation. […] Although sleep was not measured directly, the rats were observed on closed-circuit TV and appeared to sleep (rats tend to sleep in the day, when the lights are on). […]
# [5] = system: Mycobacterium tuberculosis strains; conditions: typical Mycobacterium tuberculosis strains; cited from earlier work
# [6] = system: rats; conditions: cited from earlier work
smiles,measurement,setting,value
"N[C@@H]1CON=C1O [DCS, D-cycloserine]",peak serum concentrations,"[1]; child subject, sub-antimicrobial dose less than or equal to 2 mg/kg",less than or equal to 5 μg/mL
same,serum concentrations generally maintained,"[1]; dose of 500 mg/day, chronic treatment of tuberculosis",25000 to 30000 ng/mL
same,time of peak serum concentrations after dosing,[1]; known oral capsules,3 to 8 h
same,peak serum concentrations,"[1]; sub-antimicrobial dose, less than or equal to 2 mg/kg, substantial variability between subjects",less than or equal to 5 μg/mL
same,recorded side effects,[2],"drowsiness, depression, headache, confusion, tremor, vertigo, and memory difficulties, paresthesias, and seizure"
same,number of therapy sessions required to reach a defined clinical endpoint,[3],significant reduction
same,mean change in percent fear-potentiated startle prior to and after extinction training,"[4]; DCS-DCS group: 15 mg/kg DCS i.p. 15 min before extinction training and again pre-sleep 4 h after training, n=3",176%
same,mean change in percent fear-potentiated startle prior to and after extinction training,"[4]; DCS-Sal group: 15 mg/kg DCS i.p. 15 min before extinction training, saline pre-sleep 4 h after training, n=3",78%
same,mean change in percent fear-potentiated startle prior to and after extinction training,"[4]; Sal-DCS group: saline i.p. 15 min before extinction training, 15 mg/kg DCS i.p. pre-sleep 4 h after training, n=4",164%
same,minimum inhibitory concentrations (MIC) in vitro,[5],6 to 25 µg/mL
same,effect on extinction learning,[6]; DCS injected after extinction training,facilitated extinction learning
same,effect on extinction learning,[6]; delay between extinction training and administration of DCS increased to four hours,no significant facilitatory effect
